Test results published in PubChem BioAssay (NCI).
Where “and” joins values, the source holds several entries; their conditions need not be identical. Equal values may be shown once.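 Exposure lasted 48 hours, with cells grown in 96-well plates and compounds tested at five concentrations. GI50 is the concentration that inhibits growth by half. TGI is the concentration that stops growth completely.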

Assays:
Test in all cases: growth of human tumour cells (NCI), 48 h
OVCAR-5 ovarian = system: OVCAR-5 ovarian
T-47D breast = system: T-47D breast
MOLT-4 leukemia = system: MOLT-4 leukemia
UACC-257 melanoma = system: UACC-257 melanoma
HCT-15 colon = system: HCT-15 colon
SR leukemia = system: SR leukemia
NCI-H460 lung = system: NCI-H460 lung
RXF 393 renal = system: RXF 393 renal
KM12 colon = system: KM12 colon
NCI/ADR-RES ovarian = system: NCI/ADR-RES ovarian
HCT-116 colon = system: HCT-116 colon
LOX IMVI melanoma = system: LOX IMVI melanoma
NCI-H522 lung = system: NCI-H522 lung
A498 renal = system: A498 renal
UO-31 renal = system: UO-31 renal
SK-MEL-28 melanoma = system: SK-MEL-28 melanoma
CCRF-CEM leukemia = system: CCRF-CEM leukemia
DU-145 prostate = system: DU-145 prostate
IGROV1 ovarian = system: IGROV1 ovarian
ACHN renal = system: ACHN renal
EKVX NSCLC = system: EKVX NSCLC
SNB-19 CNS = system: SNB-19 CNS
UACC-62 melanoma = system: UACC-62 melanoma
TK-10 renal = system: TK-10 renal
SK-MEL-5 melanoma = system: SK-MEL-5 melanoma
SW-620 colon = system: SW-620 colon
SN12C renal = system: SN12C renal
SK-MEL-2 melanoma = system: SK-MEL-2 melanoma
COLO 205 colon = system: COLO 205 colon
786-0 renal = system: 786-0 renal
MALME-3M melanoma = system: MALME-3M melanoma
A549 NSCLC = system: A549 NSCLC
HOP-62 NSCLC = system: HOP-62 NSCLC
K-562 leukemia = system: K-562 leukemia
HOP-92 NSCLC = system: HOP-92 NSCLC
SNB-75 CNS = system: SNB-75 CNS
NCI-H23 lung = system: NCI-H23 lung
HCC-2998 colon = system: HCC-2998 colon
MDA-MB-231 breast = system: MDA-MB-231 breast
HS 578T breast = system: HS 578T breast
MCF7 breast = system: MCF7 breast
RPMI-8226 leukemia = system: RPMI-8226 leukemia
M14 melanoma = system: M14 melanoma
MDA-N = system: MDA-N
OVCAR-8 ovarian = system: OVCAR-8 ovarian
HT29 colon = system: HT29 colon
U251 CNS = system: U251 CNS
OVCAR-3 ovarian = system: OVCAR-3 ovarian
SF-295 CNS = system: SF-295 CNS
MDA-MB-435 = system: MDA-MB-435
HL-60(TB) leukemia = system: HL-60(TB) leukemia
SF-539 CNS = system: SF-539 CNS
PC-3 prostate = system: PC-3 prostate
CAKI-1 renal = system: CAKI-1 renal
BT-549 breast = system: BT-549 breast
OVCAR-4 ovarian = system: OVCAR-4 ovarian
SK-OV-3 ovarian = system: SK-OV-3 ovarian
SF-268 CNS = system: SF-268 CNS
NCI-H226 lung = system: NCI-H226 lung

CCOP(=O)(OCC)C(Nc1ccc(F)cc1)c1ccccc1 (stereo not given)
TGI (OVCAR-5 ovarian): > 100 µM | TGI (T-47D breast): > 100 µM | TGI (MOLT-4 leukemia): > 100 µM | TGI (UACC-257 melanoma): > 100 µM | TGI (HCT-15 colon): > 100 µM | TGI (SR leukemia): > 100 µM | TGI (NCI-H460 lung): > 100 µM | TGI (RXF 393 renal): > 100 µM | TGI (KM12 colon): > 100 µM | TGI (NCI/ADR-RES ovarian): > 100 µM | TGI (HCT-116 colon): > 100 µM | TGI (LOX IMVI melanoma): > 100 µM | TGI (NCI-H522 lung): > 100 µM | TGI (A498 renal): > 100 µM | TGI (UO-31 renal): > 100 µM | TGI (SK-MEL-28 melanoma): > 100 µM | TGI (CCRF-CEM leukemia): > 100 µM | TGI (DU-145 prostate): > 100 µM | TGI (IGROV1 ovarian): > 100 µM | TGI (ACHN renal): > 100 µM | TGI (EKVX NSCLC): > 100 µM | TGI (SNB-19 CNS): > 100 µM | TGI (UACC-62 melanoma): > 100 µM | TGI (TK-10 renal): > 100 µM | TGI (SK-MEL-5 melanoma): > 100 µM | TGI (SW-620 colon): > 100 µM | TGI (SN12C renal): > 100 µM | TGI (SK-MEL-2 melanoma): > 100 µM | TGI (COLO 205 colon): > 100 µM | TGI (786-0 renal): > 100 µM | TGI (MALME-3M melanoma): > 100 µM | TGI (A549 NSCLC): > 100 µM | TGI (HOP-62 NSCLC): > 100 µM | TGI (K-562 leukemia): > 100 µM | TGI (HOP-92 NSCLC): > 100 µM | TGI (SNB-75 CNS): > 100 µM | TGI (NCI-H23 lung): > 100 µM | TGI (HCC-2998 colon): > 100 µM | TGI (MDA-MB-231 breast): > 100 µM | TGI (HS 578T breast): > 100 µM | TGI (MCF7 breast): > 100 µM | TGI (RPMI-8226 leukemia): > 100 µM | TGI (M14 melanoma): > 100 µM | TGI (MDA-N): > 100 µM | TGI (OVCAR-8 ovarian): > 100 µM | TGI (HT29 colon): > 100 µM | TGI (U251 CNS): > 100 µM | TGI (OVCAR-3 ovarian): > 100 µM | TGI (SF-295 CNS): > 100 µM | TGI (MDA-MB-435): > 100 µM | TGI (HL-60(TB) leukemia): > 100 µM | TGI (SF-539 CNS): > 100 µM | TGI (PC-3 prostate): > 100 µM | TGI (CAKI-1 renal): > 100 µM | TGI (BT-549 breast): > 100 µM | TGI (OVCAR-4 ovarian): > 100 µM | TGI (SK-OV-3 ovarian): > 100 µM | TGI (SF-268 CNS): > 100 µM | TGI (NCI-H226 lung): > 100 µM

N=C(N)SCCc1ccccn1
TGI (OVCAR-5 ovarian): > 100 µM | TGI (T-47D breast): > 100 µM | TGI (MOLT-4 leukemia): > 100 µM | TGI (UACC-257 melanoma): > 100 µM | TGI (HCT-15 colon): > 100 µM | TGI (SR leukemia): > 100 µM | TGI (NCI-H460 lung): > 100 µM | TGI (RXF 393 renal): > 100 µM | TGI (KM12 colon): > 100 µM | TGI (NCI/ADR-RES ovarian): > 100 µM | TGI (HCT-116 colon): > 100 µM | TGI (LOX IMVI melanoma): > 100 µM | TGI (NCI-H522 lung): > 100 µM | GI50 (A498 renal): 37.8 µM and > 100 µM | TGI (A498 renal): > 100 µM | TGI (UO-31 renal): > 100 µM | TGI (SK-MEL-28 melanoma): > 100 µM | TGI (CCRF-CEM leukemia): > 100 µM | TGI (DU-145 prostate): > 100 µM | TGI (IGROV1 ovarian): > 100 µM | TGI (ACHN renal): > 100 µM | TGI (EKVX NSCLC): > 100 µM | TGI (SNB-19 CNS): > 100 µM | TGI (UACC-62 melanoma): > 100 µM | TGI (TK-10 renal): > 100 µM | TGI (SK-MEL-5 melanoma): > 100 µM | TGI (SW-620 colon): > 100 µM | TGI (SN12C renal): > 100 µM | TGI (SK-MEL-2 melanoma): > 100 µM | TGI (COLO 205 colon): > 100 µM | TGI (786-0 renal): > 100 µM | TGI (MALME-3M melanoma): > 100 µM | TGI (A549 NSCLC): > 100 µM | TGI (HOP-62 NSCLC): > 100 µM | TGI (K-562 leukemia): > 100 µM | TGI (HOP-92 NSCLC): > 100 µM | GI50 (SNB-75 CNS): 39.7 µM and > 100 µM | TGI (SNB-75 CNS): > 100 µM | GI50 (NCI-H23 lung): 35.5 µM and > 100 µM | TGI (NCI-H23 lung): > 100 µM | TGI (HCC-2998 colon): > 100 µM | TGI (MDA-MB-231 breast): > 100 µM | TGI (HS 578T breast): > 100 µM | TGI (MCF7 breast): > 100 µM | TGI (RPMI-8226 leukemia): > 100 µM | TGI (M14 melanoma): > 100 µM | TGI (MDA-N): > 100 µM | TGI (OVCAR-8 ovarian): > 100 µM | TGI (HT29 colon): > 100 µM | TGI (U251 CNS): > 100 µM | TGI (OVCAR-3 ovarian): > 100 µM | TGI (SF-295 CNS): > 100 µM | TGI (MDA-MB-435): > 100 µM | TGI (HL-60(TB) leukemia): > 100 µM | TGI (SF-539 CNS): > 100 µM | TGI (PC-3 prostate): > 100 µM | TGI (CAKI-1 renal): > 100 µM | TGI (BT-549 breast): > 100 µM | TGI (OVCAR-4 ovarian): > 100 µM | TGI (SK-OV-3 ovarian): > 100 µM | TGI (SF-268 CNS): > 100 µM | TGI (NCI-H226 lung): > 100 µM

O=[N+]([O-])c1ccc2ncccc2c1CCc1c([N+](=O)[O-])ccc2ncccc12
TGI (OVCAR-5 ovarian): > 100 µM | TGI (T-47D breast): > 100 µM | TGI (MOLT-4 leukemia): > 100 µM | TGI (UACC-257 melanoma): > 100 µM | TGI (HCT-15 colon): > 100 µM | TGI (SR leukemia): > 100 µM | TGI (NCI-H460 lung): > 100 µM | TGI (RXF 393 renal): > 100 µM | TGI (KM12 colon): > 100 µM | TGI (NCI/ADR-RES ovarian): > 100 µM | TGI (HCT-116 colon): > 100 µM | TGI (LOX IMVI melanoma): > 100 µM | TGI (NCI-H522 lung): > 100 µM | TGI (A498 renal): > 100 µM | TGI (UO-31 renal): > 100 µM | TGI (SK-MEL-28 melanoma): > 100 µM | TGI (CCRF-CEM leukemia): > 100 µM | TGI (DU-145 prostate): > 100 µM | TGI (IGROV1 ovarian): > 100 µM | TGI (ACHN renal): > 100 µM | TGI (EKVX NSCLC): > 100 µM | TGI (SNB-19 CNS): > 100 µM | TGI (UACC-62 melanoma): > 100 µM | TGI (TK-10 renal): > 100 µM | TGI (SK-MEL-5 melanoma): > 100 µM | TGI (SW-620 colon): > 100 µM | TGI (SN12C renal): > 100 µM | TGI (SK-MEL-2 melanoma): > 100 µM | TGI (COLO 205 colon): > 100 µM | TGI (786-0 renal): > 100 µM | TGI (MALME-3M melanoma): > 100 µM | TGI (A549 NSCLC): > 100 µM | TGI (HOP-62 NSCLC): > 100 µM | TGI (K-562 leukemia): > 100 µM | TGI (HOP-92 NSCLC): > 100 µM | TGI (SNB-75 CNS): > 100 µM | TGI (NCI-H23 lung): > 100 µM | TGI (HCC-2998 colon): > 100 µM | TGI (MDA-MB-231 breast): > 100 µM | TGI (HS 578T breast): > 100 µM | TGI (MCF7 breast): > 100 µM | TGI (RPMI-8226 leukemia): > 100 µM | TGI (M14 melanoma): > 100 µM | TGI (MDA-N): > 100 µM | TGI (OVCAR-8 ovarian): > 100 µM | TGI (HT29 colon): > 100 µM | TGI (U251 CNS): > 100 µM | TGI (OVCAR-3 ovarian): > 100 µM | TGI (SF-295 CNS): > 100 µM | TGI (MDA-MB-435): > 100 µM | TGI (HL-60(TB) leukemia): > 100 µM | TGI (SF-539 CNS): > 100 µM | TGI (PC-3 prostate): > 100 µM | TGI (CAKI-1 renal): > 100 µM | TGI (BT-549 breast): > 100 µM | TGI (OVCAR-4 ovarian): > 100 µM | TGI (SK-OV-3 ovarian): > 100 µM | TGI (SF-268 CNS): > 100 µM | TGI (NCI-H226 lung): > 100 µM
